Where two headings read alike, the source gives them in different places.
Columns and labels:
[1] = test system: HCT-116 cells; assay: HCT-116 cell proliferation assay; assay type: cell-based; conditions: Homo sapiens
[2] = target: T1, C-Raf kinase (SEQ ID NO: 2) (Homo sapiens, UniProt P04049, Y340D/Y341D); assay: Biochemical assay for C-Raf (coupled pyruvate kinase/lactate dehydrogenase)
T1 construct: C-Raf residues 306-end; Y340D, Y341D with N-; GST (N); purchased Sigma

[3] = test system: HPAF-II cells; assay: HPAF-II cell proliferation assay; assay type: cell-based; conditions: Homo sapiens
[4] = test system: tubulin polymerization in HCT-116 cells; assay: Cellular tubulin polymerization assay (HCT-116 cells); assay type: cell-based
Protocol: HCT-116 cells (catalog #CCL-247) are obtained from the American Type Culture Collect (ATCC, Manassas, VA). Briefly, cells are grown in McCoy's 5A supplemented with 10% characterized fetal bovine serum (Invitrogen, Carlsbad, CA) and 1% Penicillin/Streptomycin/L-Glutamine at 37° C., 5% CO2, and 95% humidity. Cells are expanded until reaching 70-95% confluency at which point they are sub-cultured or harvested for assay use. 450000 cells are added per well in 1500 μL complete growth medium in a tissue culture treated, 12-well plate. Plates are incubated for 18 to 24 h at 37° C., 5% CO2, and 95% humidity. At the end of the incubation, 2000 μL of base culture media is added to each well, followed by a serial dilution of compound. Plates are incubated for an additional 1 h at 37° C., 5% CO2, and 95% humidity. Lysates are generated by the addition of 100 μL Lysis and Microtubule Stabilization Buffer 1 (LMSO1, Cytoskeleton Inc, Denver, CO) supplemented with GTP (BST06, Cytoskeleton Inc), ATP (BSA04, Cytoskeleton Inc), and Protease Inhibitor Cocktail Stock (PIC02, Cytoskeleton Inc). Cells are scraped off wells using a rubber cell scraper and collected in a clean 96-well plate. Lysates are centrifuged at 1000× g, 37° C. for 10 min and supernatant fraction is placed into an additional 96-well plate. The remaining pellet fraction is reconstituted in 100 μL LMS01 buffer and sonicated for 10 min. Pellet and Supernatant fractions are probed for α-tubulin via western blot analysis on the Jess System or equivalent (Bio-techne, Minneapolis, MN). Data is analyzed using Prism software (Graphpad, San Diego, CA) to calculate IC50 values.

[5] = target: T2, B-Raf kinase (SEQ ID NO: 1) (Homo sapiens, UniProt P15056); assay: Biochemical assay for B-Raf (coupled pyruvate kinase/lactate dehydrogenase)
T2 construct: GST (N); purchased Sigma
T2 sequence (P15056 416-766): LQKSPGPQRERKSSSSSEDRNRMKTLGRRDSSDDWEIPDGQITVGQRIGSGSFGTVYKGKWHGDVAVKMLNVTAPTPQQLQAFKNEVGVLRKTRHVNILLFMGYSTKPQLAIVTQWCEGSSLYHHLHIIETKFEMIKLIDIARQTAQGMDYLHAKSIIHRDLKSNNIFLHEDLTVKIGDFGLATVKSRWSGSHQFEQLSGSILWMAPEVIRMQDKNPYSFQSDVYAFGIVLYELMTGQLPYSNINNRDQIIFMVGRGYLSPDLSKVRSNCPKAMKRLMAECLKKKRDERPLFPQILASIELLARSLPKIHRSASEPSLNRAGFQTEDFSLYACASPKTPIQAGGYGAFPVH

[6] = test system: MiaPaca-2 cells; assay: MiaPaca-2 cell proliferation assay; assay type: cell-based; conditions: Homo sapiens, MIA PaCa-2
[7] = test system: Pa16c cells; assay: Pa16c cell proliferation assay; assay type: cell-based; conditions: 67 to 72 h incubation, resazurin; read-out: Pa16c (inhibition of cell proliferation, IC50)
[8] = target: Porcine Brain Tubulin (Sus scrofa, UniProt P02550+P02554); assay: Biochemical tubulin polymerization assay; conditions: maximum velocity of polymerization, FIG. 1; read-out: IC50 of inhibition of tubulin polymerization, biochemical tubulin assay
Porcine Brain Tubulin, sequence (P02554 whole entry): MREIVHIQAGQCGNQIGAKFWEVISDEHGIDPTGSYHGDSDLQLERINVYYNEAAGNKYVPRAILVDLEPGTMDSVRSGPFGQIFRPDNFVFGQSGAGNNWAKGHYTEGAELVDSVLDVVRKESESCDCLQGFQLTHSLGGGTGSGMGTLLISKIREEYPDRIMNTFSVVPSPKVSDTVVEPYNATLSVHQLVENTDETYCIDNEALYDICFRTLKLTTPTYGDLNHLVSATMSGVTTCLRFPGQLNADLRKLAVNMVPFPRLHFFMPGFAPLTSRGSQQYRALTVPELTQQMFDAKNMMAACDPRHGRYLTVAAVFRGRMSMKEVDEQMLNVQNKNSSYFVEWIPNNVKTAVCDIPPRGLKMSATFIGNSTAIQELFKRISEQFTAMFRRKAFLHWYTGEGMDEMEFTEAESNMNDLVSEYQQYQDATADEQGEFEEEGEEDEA
Porcine Brain Tubulin, sequence (P02550 whole entry): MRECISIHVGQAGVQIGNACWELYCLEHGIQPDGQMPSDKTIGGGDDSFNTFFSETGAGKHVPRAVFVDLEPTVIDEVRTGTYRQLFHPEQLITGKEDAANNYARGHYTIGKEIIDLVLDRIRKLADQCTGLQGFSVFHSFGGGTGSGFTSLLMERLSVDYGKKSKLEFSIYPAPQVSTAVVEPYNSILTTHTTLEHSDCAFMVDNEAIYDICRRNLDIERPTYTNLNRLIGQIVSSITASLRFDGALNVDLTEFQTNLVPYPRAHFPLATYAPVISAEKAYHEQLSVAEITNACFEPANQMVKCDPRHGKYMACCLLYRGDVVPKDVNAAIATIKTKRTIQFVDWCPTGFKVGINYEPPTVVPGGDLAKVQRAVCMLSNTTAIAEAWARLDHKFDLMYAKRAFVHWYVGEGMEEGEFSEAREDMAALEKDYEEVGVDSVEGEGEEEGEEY

[9] = HCT-116, 67 to 72 h incubation, resazurin, read-out: HCT-116 (inhibition of cell proliferation, IC50)
[10] = Table 3, mutant KRAS colorectal cancer cell line, anti-proliferative, read-out: HCT-116
[11] = 1 mM ATP, read-out: CRAF (inhibition of biochemical activity, IC50)
[12] = HPAF-II, 115 to 120 h incubation, resazurin, read-out: HPAF-II (inhibition of cell proliferation, IC50)
[13] = Table 3, mutant KRAS pancreatic cancer cell line, anti-proliferative, read-out: HPAF-II
[14] = Table 3, HCT-116 cells, read-out: Tubulin Cellular
[15] = 1 mM ATP, read-out: BRAF (inhibition of biochemical activity, IC50)
[16] = 67-72 h incubation, resazurin, read-out: MiaPaca-2 (inhibition of cell proliferation, IC50)
[17] = Table 3, mutant KRAS pancreatic cancer cell line, anti-proliferative, read-out: MiaPaca-2

T1 sequence (P04049 307-648 Y340D/Y341D): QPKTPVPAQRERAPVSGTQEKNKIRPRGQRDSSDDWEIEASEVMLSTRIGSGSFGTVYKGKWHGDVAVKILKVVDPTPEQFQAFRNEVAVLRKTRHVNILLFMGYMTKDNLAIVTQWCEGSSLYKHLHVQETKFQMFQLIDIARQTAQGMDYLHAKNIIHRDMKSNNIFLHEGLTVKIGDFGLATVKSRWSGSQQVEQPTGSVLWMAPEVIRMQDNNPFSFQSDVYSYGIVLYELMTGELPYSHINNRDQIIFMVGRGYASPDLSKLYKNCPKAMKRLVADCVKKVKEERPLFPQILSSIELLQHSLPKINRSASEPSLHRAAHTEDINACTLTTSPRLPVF

Row | SMILES | IC50 [1, 9] [nM] | IC50 [1, 10] [nM] | IC50 [2, 11] [nM] | IC50 ([2]; Table 3, read-out: CRAF) [nM] | IC50 [3, 12] [nM] | IC50 [3, 13] [nM] | IC50 [4, 14] [nM] | IC50 [5, 15] [nM] | IC50 ([5]; Table 3, read-out: BRAF) [nM] | IC50 [6, 16] [nM] | IC50 [6, 17] [nM] | IC50 [7] [nM] | IC50 ([4]; ratio of pellet to supernatant vs DMSO control, HCT-116, FIG. 2, read-out: IC50 of inhibition of tubulin polymerization, cellular tubulin assay) [nM] | IC50 [8] [nM]
1 | Cc1ccc(NC(=O)c2cc(C(F)(F)F)cnn2)cc1-c1cc(N[C@H](C)CO)nc(N2CCOCC2)c1 [Example 19] | < 100 | < 100 | < 100 | < 100 | < 100 | < 100 | < 100 | < 100 | < 100 | < 100 | < 100 | < 100 | – | –
2 | Cc1ccc(NC(=O)c2cc(C(F)(F)F)cnn2)cc1-c1cncc(N2CCOCC2)c1 [Example 27] | 100 to 500 | 100 to 500 | < 100 | < 100 | 100 to 500 | 100 to 500 | 100 to 500 | 100 to 500 | 100 to 500 | < 100 | < 100 | 100 to 500 | – | –
3 | Cc1ccc(NC(=O)c2cc(C(F)(F)F)cnn2)cc1-c1ccnc(N2CCOCC2)n1 [Example 29] | 100 to 500 | 100 to 500 | 1000 to 10000 | 1000 to 10000 | 100 to 500 | 100 to 500 | < 100 | 1000 to 10000 | 1000 to 10000 | < 100 | < 100 | 100 to 500 | – | –
4 | Cc1ccc(NC(=O)c2cc(C(C)(C)F)cnn2)cc1-c1cc(OCCO)nc(N2CCOCC2)c1 [Example 34] | < 100 | < 100 | < 100 | < 100 | < 100 | < 100 | 100 to 500 | < 100 | < 100 | < 100 | < 100 | < 100 | – | –
5 | Cc1ccc(NC(=O)c2cc(C3CC3)cnn2)cc1-c1cc(OCCO)nc(N2CCOCC2)c1 [Example 37] | < 100 | < 100 | < 100 | < 100 | < 100 | < 100 | < 100 | < 100 | < 100 | < 100 | < 100 | < 100 | – | –
6 | Cc1ccc(NC(=O)c2cc(C(F)(F)F)cnn2)cc1-c1cc(N2CCOCC2)nc(OCCO)n1 [Example 44] | < 100 | < 100 | 100 to 500 | 100 to 500 | < 100 | < 100 | 100 to 500 | 100 to 500 | 100 to 500 | < 100 | < 100 | < 100 | – | –
7 | Cc1ccc(NC(=O)c2cc(C3CCC3)cnn2)cc1-c1cc(N[C@H](C)CO)nc(N2CCOCC2)c1 [Example 48] | < 100 | < 100 | < 100 | < 100 | 500 to 1000 | 500 to 1000 | < 100 | < 100 | < 100 | < 100 | < 100 | < 100 | – | –
8 | Cc1ccc(NC(=O)c2cc(C(F)(F)F)cnn2)cc1-c1nc(N[C@H](C)CO)cc(N2CCOCC2)n1 [Example 49] | 100 to 500 | 100 to 500 | 1000 to 10000 | 1000 to 10000 | 100 to 500 | 100 to 500 | 100 to 500 | 1000 to 10000 | 1000 to 10000 | 100 to 500 | 100 to 500 | 100 to 500 | – | –
9 | Cc1ccc(NC(=O)c2cc(C(F)(F)F)cnn2)cc1-c1ccnc(N2CC3CCC(C2)O3)c1 [Example 83] | < 100 | < 100 | < 100 | < 100 | < 100 | < 100 | < 100 | < 100 | < 100 | < 100 | < 100 | < 100 | – | –
10 | CC(C)(C)c1[nH]cnc1/C=c1\[nH]c(=O)/c(=C/c2ccccc2)[nH]c1=O [plinabulin, reference compound] | – | – | – | – | – | – | – | – | – | – | – | – | 5 | 2700
